According to US8691184B2, “Bcl-2/Bcl-xL inhibitors and therapeutic methods using the same” (The Regents of the University of Michigan, priority 2011, dated 2014):
Several values for one entry are separate records, joined by “and”; a condition that tells them apart may be missing. Equal values may be shown once. Read-outs that look alike come from different tables or passages of the source.

Assays:
[1] = test system: RS4;11 cell line; assay: Apoptosis assay (Annexin-V/PI flow cytometry), RS4;11; type: cell-based; conditions: time- and dose-dependent, Annexin-V/PI
Method: (§1) Apoptosis assay was performed using the Annexin-V-FLUOS Staining kit (Roche Diagnostics, Indianapolis, Ind.) according to the manufacturer's instruction. Briefly, cells were treated with compounds for the indicated time points, harvested and washed with PBS. Cells were stained with Annexin V-FITC and Propidium iodide for 15 minutes at room temperature in the dark before analyzed with a BD Biosciences FACSCaliburs (Becton Dickinson).

[2] = test system: H146 cell line; assay: Western blot of PARP and caspase-3 cleavage, H146; type: cell-based; conditions: as low as 100 nM, 8-hr treatment
Method: (§2) Cells were lysed with lysis buffer (PBS containing 1% NP40, 0.5% Na-deoxycholate, and 0.1% SDS) supplemented with protease inhibitors (α-complete, Roche). The protein extracts were quantified using a calorimetric assay (Bradford Reagent) (BioRad, Hercules, Calif.). Proteins were electrophoresed onto 4-20% SDS-PAGE gels (Invitrogen) and transferred onto polyvinylidene difluoride membranes (Bio-Rad). Following blocking in 5% milk, membranes were incubated with a specific primary antibody, washed, and incubated with horseradish peroxidase-linked secondary antibody (Pierce). The signals were visualized with the chemiluminescent horseradish peroxidase antibody detection reagent (Denville Scientific).

[3] = test system: ML-2 cell line; assay: Western blot of PARP and caspase-3 cleavage, ML-2; type: cell-based; conditions: as low as 100 nM, 8-hr treatment
Method: as §2

[4] = test system: H146 small-cell lung cancer cell line; assay: Cell death assay (trypan blue), H146; type: cell-based; conditions: trypan blue assay
Method: Cell death assay was performed using a Trypan blue exclusion test of cell viability. One million cells were seeded in 6-well plates and incubated at 37° C. in an atmosphere of 95% air and 5% CO2 with or without compounds for the indicated time points. At the end of treatment, cells were collected and centrifuged at 1000 rpm for 5 minutes. The cell pellets were re-suspended in PBS and mixed with 0.4% Trypan blue (Invitrogen) at 1:1 dilution to determine cell viability using Olympus CKX41 microscope (Olympus, Center Valley, Pa.).

[5] = test system: ML-2 AML cell line; assay: Apoptosis assay (Annexin-V/PI flow cytometry), ML-2; type: cell-based; conditions: 300 nM, 24 hr
Method: as §1

[6] = test system: cellular Bcl-2/Bcl-xL; assay: Competitive pull-down against Biotin-150 in ML-2 and H146 cell lysates; type: binding; conditions: competitive experiment
[7] = test system: RS4;11 cell line; assay: Western blot of PARP and caspase-3 cleavage, RS4;11; type: cell-based; conditions: as low as 100 nM, 8-hr treatment
Method: as §2

[8] = test system: RS4;11 cells; assay: Cell growth assay (WST-8), RS4;11; type: cell-based; conditions: Homo sapiens, RS4-11, 96 h
Method: (§3) RS4;11 and H146 cells were seeded in 96-well cell culture plates at a density of 10,000 cells/well with serially diluted compounds and incubated at 37° C. in an atmosphere of 95% air and 5% CO2 for 4 days. Cell viability was determined using the WST-8 (2-(2-methoxy-4-nitrophenyl)-3-(4-nitrophenyl)-5-(2,4-disulfophenyl)-2H-tetrazolium, monosodium salt) based Cell Counting-8 Kit (Dojindo Molecular Technologies, Inc., Rockville, Md.) according to the manufacture's instruction. Briefly, WST-8 was added to each well at a final concentration of 10% (v/v), and then the plates were incubated at 37° C. for 1˜2 hours for color development. The absorbance was measured at 450 nm using a SPECTRAmax PLUS plate reader (Molecular Devices, Sunnyvale, Calif.). The half maximal inhibitory concentration (IC50) was calculated using the GraphPad Prism 5 software (GraphPad Software, La Jolla, Calif.).

[9] = test system: ML-2 acute myeloid leukemia (AML) cell line; assay: Cell growth assay (WST-8), ML-2; type: cell-based
[10] = test system: H146 cells; assay: Cell growth assay (WST-8), H146; type: cell-based; conditions: Homo sapiens, NCI-H146, 96 h
Method: as §3

[11] = molecular target: Bcl-2 (Homo sapiens, UniProt P10415); assay: FP-based binding assay, Bcl-2
[12] = molecular target: Bcl-xL (Homo sapiens, UniProt Q07817); assay: FP-based binding assay, Bcl-xL; conditions: for Ki: Binding Affinities Bcl-xL Ki ± SD (nM), Table 4, * Ki is an estimate, compound more potent than the tracer
[13] = molecular target: Mcl-1 (Homo sapiens, UniProt Q07820); assay: FP-based binding assay, Mcl-1; conditions: for IC50: Table 4, FP-based assay, read-out: Binding Affinities Mcl-1 IC50 ± SD
[14] = Toxicity (maximum tolerated dose) in SCID mice; type: in vivo
Text: These experiments established the maximum tolerated doses (MTD).

[15] = Table 4, 4 days, read-out: Cell Growth Inhibition (IC50 ± SD, nM) RS4;11
[16] = Table 4, read-out: Cell Growth Inhibition (IC50 ± SD, nM) ML-2
[17] = Table 4, 4 days, read-out: Cell Growth Inhibition (IC50 ± SD, nM) H146
[18] = read-out: Binding Affinities Bcl-xL IC50 ± SD, Table 4, FP-based assay

Bcl-xL, sequence (Q07817 whole entry): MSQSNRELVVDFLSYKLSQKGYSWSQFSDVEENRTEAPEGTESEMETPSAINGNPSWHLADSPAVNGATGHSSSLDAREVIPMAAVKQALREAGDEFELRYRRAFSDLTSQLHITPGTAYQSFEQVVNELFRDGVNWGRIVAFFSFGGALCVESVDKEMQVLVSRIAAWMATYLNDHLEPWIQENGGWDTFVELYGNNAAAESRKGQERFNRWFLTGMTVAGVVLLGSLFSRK
Mcl-1, sequence (Q07820 whole entry, species assumed): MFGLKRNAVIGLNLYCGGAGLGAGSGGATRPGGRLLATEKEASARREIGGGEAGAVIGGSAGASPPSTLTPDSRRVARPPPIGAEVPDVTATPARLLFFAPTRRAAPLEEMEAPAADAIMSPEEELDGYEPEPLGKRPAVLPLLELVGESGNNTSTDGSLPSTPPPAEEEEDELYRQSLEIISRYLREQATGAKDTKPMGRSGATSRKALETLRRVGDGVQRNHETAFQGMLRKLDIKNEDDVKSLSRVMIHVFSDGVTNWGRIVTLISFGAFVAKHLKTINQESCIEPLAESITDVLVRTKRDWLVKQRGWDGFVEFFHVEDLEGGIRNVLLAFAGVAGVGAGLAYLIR
Bcl-2, sequence (P10415 whole entry): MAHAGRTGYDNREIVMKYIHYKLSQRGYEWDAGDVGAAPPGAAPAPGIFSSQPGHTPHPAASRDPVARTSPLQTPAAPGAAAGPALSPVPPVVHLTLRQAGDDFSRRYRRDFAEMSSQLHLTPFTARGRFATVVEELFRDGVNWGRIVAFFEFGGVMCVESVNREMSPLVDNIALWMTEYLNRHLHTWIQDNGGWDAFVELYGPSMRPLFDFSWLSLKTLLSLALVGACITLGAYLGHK

Compound | IC50 [11] | Ki [11] | IC50 [8, 15] | IC50 [9, 16] | IC50 [10, 17] | IC50 [12] | Ki [12] | IC50 [13] | further results
CN(C)CC[C@H](CSc1ccccc1)Nc1ccc(S(=O)(=O)NC(=O)c2ccc(N3CCN(Cc4ccccc4-c4ccc(Cl)cc4)CC3)cc2)cc1[N+](=O)[O-] [ABT-737, reference compound] |  |  |  |  |  |  |  |  | Apoptosis induction in RS4;11 [1]: highly effective in induction of apoptosis; Cleavage of PARP and caspase-3 [2]: highly effective in induction of cleavage of PARP and caspase-3; Cleavage of PARP and caspase-3 [3]: highly effective in induction of cleavage of PARP and caspase-3; Cell death induction in H146 [4]: effectively induced cell death; ML-2 cells undergoing apoptosis [5]: about 50%; Blocking of interaction of cellular Bcl-2/Bcl-xL with Biotin-150 [6]: blocked the interaction of cellular Bcl-2/Bcl-xL and Biotin-150 in a dose-dependent manner; Cleavage of PARP and caspase-3 [7]: highly effective in induction of cleavage of PARP and caspase-3; IC50 ([8]; Table 3, 4 days, read-out: Cell Growth Inhibition (IC50 ± SD) RS4, 11): 12 ± 6 nM; IC50 ([9]; Table 3, read-out: Cell Growth Inhibition (IC50 ± SD) ML-2): 16 ± 2 nM; IC50 ([10]; Table 3, 4 days, read-out: Cell Growth Inhibition (IC50 ± SD) H146): 62 ± 39 nM
CNC(=O)c1c(-c2cccc(N3CCN(c4ccc(NS(=O)(=O)c5ccc(N[C@H](CCN6CCOCC6)CSc6ccccc6)c([N+](=O)[O-])c5)cc4)CC3)c2)c(-c2ccc(Cl)cc2)n(C)c1C [Compound 124] | 14 ± 2 nM | 3 ± 0.6 nM | 89 ± 30 nM | 382 ± 138 nM | 178 ± 65 nM | 5 ± 1 nM | 1 ± 0.2 nM | > 10000 nM | 
CN(C)CC[C@@H](CSc1ccccc1)Nc1ccc(S(=O)(=O)Nc2ccc(N3CCN(c4cccc(-c5ccnn5-c5ccc(Cl)cc5)c4)CC3)cc2)cc1[N+](=O)[O-] [Compound 130] |  |  |  |  |  |  |  |  | Weight loss or other signs of toxicity ([14]; female SCID mice, intravenously, daily, 5-times a week for 2 weeks, 25 mg/kg): no or minimal weight loss or other signs of toxicity
Cc1c(C(=O)NS(C)(=O)=O)c(-c2cccc(N3CCN(c4ccc(NS(=O)(=O)c5ccc(N[C@H](CCN(C)C)CSc6ccccc6)c([N+](=O)[O-])c5)cc4)CC3)c2)c(-c2ccc(Cl)cc2)n1C [Compound 133] | 1 ± 0.2 nM | < 1 nM | 87 ± 19 nM | 160 ± 53 nM | 38 ± 22 nM |  | 1.3 ± 0.3 nM | > 10000 nM | Weight loss at higher dose ([14]; SCID mice, 50 mg/kg): caused weight loss; IC50 [12, 18]: 5 ± 1 nM
Cc1c(C(=O)O)c(-c2cccc(N3CCN(c4ccc(NS(=O)(=O)c5ccc(N[C@H](CCN(C)C)CSc6ccccc6)c(S(=O)(=O)C(F)(F)F)c5)cc4)CC3)c2)c(-c2ccc(Cl)cc2)n1C [Compound 185, (R)-5-(4-chlorophenyl)-4-(3-(4-(4-(4-((4-(dimethylamino)-1-(phenylthio)butan-2-yl)amino)-3-((trifluoromethyl)sulfonyl)phenylsulfonamido)phenyl)piperazin-1-yl)phenyl)-1,2-dimethyl-1H-pyrrole-3-carboxylic acid] | 2.2 ± 1.6 nM | < 1 nM | 81 ± 7 nM | 550 ± 204 nM | 177 ± 73 nM | 5 ± 4 nM | 1.3 ± 1 nM | > 10000 nM | 
Cc1c(C(=O)O)c(-c2cccc(N3CCN(c4ccc(NS(=O)(=O)c5ccc(N[C@H](CCN6CCOCC6)CSc6ccccc6)c(S(=O)(=O)C(F)(F)F)c5)cc4)CC3)c2)c(-c2ccc(Cl)cc2)n1C [Compound 186, (R)-5-(4-chlorophenyl)-1,2-dimethyl-4-(3-(4-(4-(4-((4-morpholino-1-(phenylthio)butan-2-yl)amino)-3-((trifluoromethyl)sulfonyl)phenylsulfonamido)phenyl)piperazin-1-yl)phenyl)-1H-pyrrole-3-carboxylic acid] | 14 ± 3 nM | 3.4 ± 0.6 nM | 493 ± 64 nM | 1090 ± 562 nM | 430 ± 207 nM | 6 ± 3 nM | 1.6 ± 0.8 nM | > 10000 nM | 
Flu-BID: "Homemade fluorescein labeled" "BID (79-99)" peptide, fluorescent probe "in FP assays for" Mcl-1 [reference compound] |  |  |  |  |  |  |  |  | Kd ([13]; saturation FP, 2 nM probe, increasing protein, read-out: Kd of fluorescent probe to Mcl-1): 6.8 ± 1.5 nM

The next lines start with results.

IC50 [11] | Ki [11] | IC50 [8, 15] | IC50 [9, 16] | IC50 [10, 17] | IC50 [12] | Ki [12] | IC50 [13] | Compound | further results
 |  | 74 ± 44 nM | 215 ± 52 nM | 36 ± 26 nM |  | 1.6 ± 0.8 nM | > 10000 nM | CNC(=O)c1c(-c2cccc(N3CCN(c4ccc(NS(=O)(=O)c5ccc(N[C@H](CCN(C)C)CSc6ccccc6)c([N+](=O)[O-])c5)cc4)CC3)c2)c(-c2ccc(Cl)cc2)n(C)c1C [Compound 125] | IC50 ([11]; read-out: Binding Affinities Bcl-2 IC50 ± SD, Table 4, FP-based assay): 5 ± 1 nM; Ki ([11]; read-out: Binding Affinities Bcl-2 Ki ± SD, Table 4, * Ki is an estimate, compound more potent than the tracer): 1.1 ± 0.2 nM; IC50 [12, 18]: 6 ± 3 nM
 |  |  |  |  | 3 ± 0.4 nM | 3 nM and < 1 nM | > 5000 nM | Cc1cc(-c2cccc(N3CCN(c4ccc(NS(=O)(=O)c5ccc(N[C@H](CCN(C)C)CSc6ccccc6)c([N+](=O)[O-])c5)cc4)CC3)c2)c(-c2ccc(Cl)cc2)n1C [Compound 168, (R)—N-(4-(4-(3-(2-(4-chlorophenyl)-1,5-dimethyl-1H-pyrrol-3-yl)phenyl)piperazin-1-yl)phenyl)-4-((4-(dimethylamino)-1-(phenylthio)butan-2-yl)amino)-3-nitrobenzenesulfonamide] | 
1 ± 0.1 nM | < 1 nM | 26 ± 4 nM | 124 ± 62 nM | 87 ± 60 nM |  | 1.6 ± 1 nM | > 10000 nM | Cc1c(C(=O)O)c(-c2cccc(N3CCN(c4ccc(NS(=O)(=O)c5ccc(N[C@H](CCN(C)C)CSc6ccccc6)c([N+](=O)[O-])c5)cc4)CC3)c2)c(-c2ccc(Cl)cc2)n1C [Compound 178, (R)-5-(4-chlorophenyl)-4-(3-(4-(4-(4-((4-(dimethylamino)-1-(phenylthio)butan-2-yl)amino)-3-nitrophenylsulfonamido)phenyl)piperazin-1-yl)phenyl)-1,2-dimethyl-1H-pyrrole-3-carboxylic acid] | IC50 [12, 18]: 6 ± 4 nM
2 ± 1 nM | < 1 nM | 99 ± 28 nM | 225 ± 49 nM | 181 ± 61 nM | 5 ± 2 nM | 1.3 ± 0.6 nM | > 10000 nM | Cc1c(C(=O)O)c(-c2cccc(N3CCN(c4ccc(NS(=O)(=O)c5ccc(N[C@H](CCN6CCOCC6)CSc6ccccc6)c([N+](=O)[O-])c5)cc4)CC3)c2)c(-c2ccc(Cl)cc2)n1C [Compound 187, (R)-5-(4-chlorophenyl)-1,2-dimethyl-4-(3-(4-(4-(4-((4-morpholino-1-(phenylthio)butan-2-yl)amino)-3-nitrophenylsulfonamido)phenyl)piperazin-1-yl)phenyl)-1H-pyrrole-3-carboxylic acid] | 
